# Laboratory results: ChEMBL document CHEMBL3297661, “1-Substituted-5-[(3,5-dinitrobenzyl)sulfanyl]-1H-tetrazoles and their isosteric analogs: A new class of selective antitubercular agents active against drug-susceptible and multidrug-resistant mycobacteria” (Eur J Med Chem, 2014)
# System: Mycobacterium tuberculosis
# Assay: Antimycobacterial activity against Mycobacterium tuberculosis CNCTC My 331/88 after 14 days by micromethod
# Format: functional
# Settings: CNCTC My 331/88, 336 h
row,SMILES,MIC [µM]
1,COc1ccccc1-n1nnnc1SCc1cc([N+](=O)[O-])cc([N+](=O)[O-])c1,125
2,O=[N+]([O-])c1ccc(CSc2nnnn2-c2ccc([N+](=O)[O-])cc2)cc1,250
3,CCCCCCn1nnnc1[Se]Cc1cc([N+](=O)[O-])cc([N+](=O)[O-])c1,1
4,COc1ccc(-n2nnnc2SCc2cc(N)cc([N+](=O)[O-])c2)cc1,250
5,O=[N+]([O-])c1cc(CSCc2ccccc2)cc([N+](=O)[O-])c1,250
6,O=[N+]([O-])c1cc(COc2nnnn2-c2ccc(Cl)cc2)cc([N+](=O)[O-])c1,2

# System: Mycobacterium tuberculosis
# Assay: Antimycobacterial activity against Mycobacterium tuberculosis CNCTC My 331/88 after 21 days by micromethod
# Format: functional
# Settings: CNCTC My 331/88, 504 h
row,SMILES,MIC [µM]
1,COc1ccccc1-n1nnnc1SCc1cc([N+](=O)[O-])cc([N+](=O)[O-])c1,125
2,O=[N+]([O-])c1ccc(CSc2nnnn2-c2ccc([N+](=O)[O-])cc2)cc1,250
3,CCCCCCn1nnnc1[Se]Cc1cc([N+](=O)[O-])cc([N+](=O)[O-])c1,1
4,COc1ccc(-n2nnnc2SCc2cc(N)cc([N+](=O)[O-])c2)cc1,250
5,O=[N+]([O-])c1cc(CSCc2ccccc2)cc([N+](=O)[O-])c1,250
6,O=[N+]([O-])c1cc(COc2nnnn2-c2ccc(Cl)cc2)cc([N+](=O)[O-])c1,4

# System: Mycobacterium avium
# Assay: Antimycobacterial activity against Mycobacterium avium CNCTC My 330/88 after 14 days by micromethod
# Format: functional
# Settings: CNCTC My 330/88, 336 h
row,SMILES,MIC [µM]
1,COc1ccccc1-n1nnnc1SCc1cc([N+](=O)[O-])cc([N+](=O)[O-])c1,125
2,O=[N+]([O-])c1ccc(CSc2nnnn2-c2ccc([N+](=O)[O-])cc2)cc1,250
3,CCCCCCn1nnnc1[Se]Cc1cc([N+](=O)[O-])cc([N+](=O)[O-])c1,16
4,COc1ccc(-n2nnnc2SCc2cc(N)cc([N+](=O)[O-])c2)cc1,250
5,O=[N+]([O-])c1cc(CSCc2ccccc2)cc([N+](=O)[O-])c1,125
6,O=[N+]([O-])c1cc(COc2nnnn2-c2ccc(Cl)cc2)cc([N+](=O)[O-])c1,32

# System: Mycobacterium avium
# Assay: Antimycobacterial activity against Mycobacterium avium CNCTC My 330/88 after 21 days by micromethod
# Format: functional
# Settings: CNCTC My 330/88, 504 h
row,SMILES,MIC [µM]
1,COc1ccccc1-n1nnnc1SCc1cc([N+](=O)[O-])cc([N+](=O)[O-])c1,125
2,O=[N+]([O-])c1ccc(CSc2nnnn2-c2ccc([N+](=O)[O-])cc2)cc1,250
3,CCCCCCn1nnnc1[Se]Cc1cc([N+](=O)[O-])cc([N+](=O)[O-])c1,32
4,COc1ccc(-n2nnnc2SCc2cc(N)cc([N+](=O)[O-])c2)cc1,250
5,O=[N+]([O-])c1cc(CSCc2ccccc2)cc([N+](=O)[O-])c1,125
6,O=[N+]([O-])c1cc(COc2nnnn2-c2ccc(Cl)cc2)cc([N+](=O)[O-])c1,62

# System: Mycobacterium kansasii
# Assay: Antimycobacterial activity against Mycobacterium kansasii CNCTC My 235/80 after 7 days by micromethod
# Format: functional
# Settings: CNCTC My 235/80, 168 h
row,SMILES,MIC [µM]
1,COc1ccccc1-n1nnnc1SCc1cc([N+](=O)[O-])cc([N+](=O)[O-])c1,125
2,O=[N+]([O-])c1ccc(CSc2nnnn2-c2ccc([N+](=O)[O-])cc2)cc1,250
3,CCCCCCn1nnnc1[Se]Cc1cc([N+](=O)[O-])cc([N+](=O)[O-])c1,1
4,COc1ccc(-n2nnnc2SCc2cc(N)cc([N+](=O)[O-])c2)cc1,250
5,O=[N+]([O-])c1cc(CSCc2ccccc2)cc([N+](=O)[O-])c1,125
6,O=[N+]([O-])c1cc(COc2nnnn2-c2ccc(Cl)cc2)cc([N+](=O)[O-])c1,8

# System: Mycobacterium kansasii
# Assay: Antimycobacterial activity against Mycobacterium kansasii CNCTC My 235/80 after 14 days by micromethod
# Format: functional
# Settings: CNCTC My 235/80, 336 h
row,SMILES,MIC [µM]
1,COc1ccccc1-n1nnnc1SCc1cc([N+](=O)[O-])cc([N+](=O)[O-])c1,125
2,O=[N+]([O-])c1ccc(CSc2nnnn2-c2ccc([N+](=O)[O-])cc2)cc1,250
3,CCCCCCn1nnnc1[Se]Cc1cc([N+](=O)[O-])cc([N+](=O)[O-])c1,2
4,COc1ccc(-n2nnnc2SCc2cc(N)cc([N+](=O)[O-])c2)cc1,250
5,O=[N+]([O-])c1cc(CSCc2ccccc2)cc([N+](=O)[O-])c1,125
6,O=[N+]([O-])c1cc(COc2nnnn2-c2ccc(Cl)cc2)cc([N+](=O)[O-])c1,16

# System: Mycobacterium kansasii
# Assay: Antimycobacterial activity against Mycobacterium kansasii CNCTC My 235/80 after 21 days by micromethod
# Format: functional
# Settings: CNCTC My 235/80, 504 h
row,SMILES,MIC [µM]
1,COc1ccccc1-n1nnnc1SCc1cc([N+](=O)[O-])cc([N+](=O)[O-])c1,125
2,O=[N+]([O-])c1ccc(CSc2nnnn2-c2ccc([N+](=O)[O-])cc2)cc1,250
3,CCCCCCn1nnnc1[Se]Cc1cc([N+](=O)[O-])cc([N+](=O)[O-])c1,2
4,COc1ccc(-n2nnnc2SCc2cc(N)cc([N+](=O)[O-])c2)cc1,250
5,O=[N+]([O-])c1cc(CSCc2ccccc2)cc([N+](=O)[O-])c1,125
6,O=[N+]([O-])c1cc(COc2nnnn2-c2ccc(Cl)cc2)cc([N+](=O)[O-])c1,32

# System: Mycobacterium kansasii
# Assay: Antimycobacterial activity against Mycobacterium kansasii 6509/96 after 7 days by micromethod
# Format: functional
# Settings: 6509/96, 168 h
row,SMILES,MIC [µM]
1,COc1ccccc1-n1nnnc1SCc1cc([N+](=O)[O-])cc([N+](=O)[O-])c1,125
2,O=[N+]([O-])c1ccc(CSc2nnnn2-c2ccc([N+](=O)[O-])cc2)cc1,250
3,CCCCCCn1nnnc1[Se]Cc1cc([N+](=O)[O-])cc([N+](=O)[O-])c1,2
4,COc1ccc(-n2nnnc2SCc2cc(N)cc([N+](=O)[O-])c2)cc1,250
5,O=[N+]([O-])c1cc(CSCc2ccccc2)cc([N+](=O)[O-])c1,125
6,O=[N+]([O-])c1cc(COc2nnnn2-c2ccc(Cl)cc2)cc([N+](=O)[O-])c1,8

# System: Mycobacterium kansasii
# Assay: Antimycobacterial activity against Mycobacterium kansasii 6509/96 after 14 days by micromethod
# Format: functional
# Settings: 6509/96, 336 h
row,SMILES,MIC [µM]
1,COc1ccccc1-n1nnnc1SCc1cc([N+](=O)[O-])cc([N+](=O)[O-])c1,125
2,O=[N+]([O-])c1ccc(CSc2nnnn2-c2ccc([N+](=O)[O-])cc2)cc1,250
3,CCCCCCn1nnnc1[Se]Cc1cc([N+](=O)[O-])cc([N+](=O)[O-])c1,4
4,COc1ccc(-n2nnnc2SCc2cc(N)cc([N+](=O)[O-])c2)cc1,250
5,O=[N+]([O-])c1cc(CSCc2ccccc2)cc([N+](=O)[O-])c1,125
6,O=[N+]([O-])c1cc(COc2nnnn2-c2ccc(Cl)cc2)cc([N+](=O)[O-])c1,16

# System: Mycobacterium kansasii
# Assay: Antimycobacterial activity against Mycobacterium kansasii 6509/96 after 21 days by micromethod
# Format: functional
# Settings: 6509/96, 504 h
row,SMILES,MIC [µM]
1,COc1ccccc1-n1nnnc1SCc1cc([N+](=O)[O-])cc([N+](=O)[O-])c1,125
2,O=[N+]([O-])c1ccc(CSc2nnnn2-c2ccc([N+](=O)[O-])cc2)cc1,250
3,CCCCCCn1nnnc1[Se]Cc1cc([N+](=O)[O-])cc([N+](=O)[O-])c1,4
4,COc1ccc(-n2nnnc2SCc2cc(N)cc([N+](=O)[O-])c2)cc1,250
5,O=[N+]([O-])c1cc(CSCc2ccccc2)cc([N+](=O)[O-])c1,125
6,O=[N+]([O-])c1cc(COc2nnnn2-c2ccc(Cl)cc2)cc([N+](=O)[O-])c1,32
